Test [1] relates to Escherichia coli. The test can be described thus: Antimicrobial activity against multidrug resistant Escherichia coli CCARM 1229 after 16 hrs by broth microdilution assay. Type of test: functional. Particulars: CCARM 1229, 16 h. For orientation: Broth dilution looks for growth in wells or tubes with falling amounts of substance.
Test [2] deals with Pseudomonas aeruginosa. The test can be described thus: Antimicrobial activity against Pseudomonas aeruginosa KCTC 1637 after 16 hrs by broth microdilution assay. Particulars: KCTC 1637, 16 h. Type of test: functional.
In test [3] the test system is Staphylococcus aureus. Kind of test: Antimicrobial activity against Methicillin-resistant Staphylococcus aureus 3126 after 16 hrs by broth microdilution assay. In kind it is functional. Particulars: Staphylococcus aureus, 3126, 16 h.
In test [4] the test system is Escherichia coli. The test can be described thus: Antimicrobial activity against Escherichia coli KCTC 1682 after 16 hrs by broth microdilution assay. Particulars: KCTC 1682, 16 h. In kind it is functional.
For test [5], the system named is Acinetobacter baumannii. Kind of test: Antimicrobial activity against multidrug resistant Acinetobacter baumannii CCARM 12036 after 16 hrs by broth microdilution assay. In kind it is functional. Particulars: CCARM 12036, 16 h.
The subject of test [6] is Staphylococcus aureus. The test can be described thus: Antimicrobial activity against Methicillin-resistant Staphylococcus aureus isolate 3114 after 16 hrs by broth microdilution assay. In kind it is functional. Conditions: isolate 3114, 16 h.
Test [7] has as its system Pseudomonas aeruginosa. The test can be described thus: Antimicrobial activity against multidrug resistant Pseudomonas aeruginosa CCARM 2002 after 16 hrs by broth microdilution assay. In kind it is functional. Particulars: CCARM 2002, 16 h.
Test [8] relates to Acinetobacter baumannii. The test can be described thus: Antimicrobial activity against multidrug resistant Acinetobacter baumannii CCARM 12037 after 16 hrs by broth microdilution assay. In kind it is functional. Particulars: CCARM 12037, 16 h.
Test [9] deals with Staphylococcus aureus. The test can be described thus: Antimicrobial activity against Staphylococcus aureus after 16 hrs by broth microdilution assay. In kind it is functional.
The subject of test [10] is Acinetobacter baumannii. Kind of test: Antimicrobial activity against multidrug resistant Acinetobacter baumannii CCARM 12005 after 16 hrs by broth microdilution assay. Conditions: CCARM 12005, 16 h. Type of test: functional.
The subject of test [11] is Pseudomonas aeruginosa. The test can be described thus: Antimicrobial activity against multidrug resistant Pseudomonas aeruginosa CCARM 2163 after 16 hrs by broth microdilution assay. Type of test: functional. Conditions: CCARM 2163, 16 h.
Test [12] deals with Acinetobacter baumannii. The test can be described thus: Antimicrobial activity against multidrug resistant Acinetobacter baumannii CCARM 12035 after 16 hrs by broth microdilution assay. Type of test: functional. Conditions: CCARM 12035, 16 h.
Test [13] deals with Acinetobacter baumannii. Kind of test: Antimicrobial activity against Acinetobacter baumannii KCTC 2508 after 16 hrs by broth microdilution assay. Type of test: functional. Particulars: KCTC 2508, 16 h.
In test [14] the test system is Pseudomonas aeruginosa. Kind of test: Antimicrobial activity against multidrug resistant Pseudomonas aeruginosa CCARM 2095 after 16 hrs by broth microdilution assay. In kind it is functional. Conditions: CCARM 2095, 16 h.
The test system of test [15] is Staphylococcus epidermidis. The test can be described thus: Antimicrobial activity against Staphylococcus epidermidis after 16 hrs by broth microdilution assay. In kind it is functional.
Test [16] in a line: Binding affinity to Acinetobacter baumannii His-tagged KAS3 expressed in Escherichia coli BL21(DE3) by tryptophan emission assay.
Test [17] has as its system Escherichia coli. Kind of test: Antimicrobial activity against multidrug resistant Escherichia coli CCARM 1238 after 16 hrs by broth microdilution assay. In kind it is functional. Conditions: CCARM 1238, 16 h.
For another test, the system named is Bacillus subtilis. The test can be described thus: Antimicrobial activity against Bacillus subtilis after 16 hrs by broth microdilution assay. In kind it is functional.

A word on the MIC: it is the smallest concentration in the dilution series that meets the test's criterion for growth inhibition. Read a high MIC as a need for much substance. One may read the Kd as a measure of binding affinity in units of concentration.

≈ marks a conversion by molar mass, not a printed value.

Consider `COc1ccc(/C=N/NCc2ccc(C(F)(F)F)cc2)c(O)c1`, for which the MIC in the test with Escherichia coli [1], in the test on Pseudomonas aeruginosa [2], in the test with Staphylococcus aureus [3], against Escherichia coli [4], with Acinetobacter baumannii [5] and against Staphylococcus aureus [6] was above 32 µg/mL in each case. Moreover, the MIC against Pseudomonas aeruginosa [7], in the test on Acinetobacter baumannii [8], with Staphylococcus aureus [9], with Acinetobacter baumannii [10], against Pseudomonas aeruginosa [11] and with Acinetobacter baumannii [12] was above 32 µg/mL in each case. The MIC (against Acinetobacter baumannii [13]; with Pseudomonas aeruginosa [14]; in test [15]; in the test on Escherichia coli [17]; in the test with Bacillus subtilis) was above 32 µg/mL throughout. For the same molecule, binding in test [16] was put at a Kd of 22 µM.
Take `CCCOc1ccc(/C=N/NCc2ccc(C(F)(F)F)cc2)c(O)c1`: the MIC in the test on Escherichia coli [1], in the test on Pseudomonas aeruginosa [2], with Staphylococcus aureus [3], with Escherichia coli [4], in the test on Acinetobacter baumannii [5] and with Staphylococcus aureus [6] was above 32 µg/mL in each case. Also, the minimum inhibitory concentration (MIC) against Pseudomonas aeruginosa [7], with Acinetobacter baumannii [8], against Staphylococcus aureus [9], against Acinetobacter baumannii [10], in the test with Pseudomonas aeruginosa [11] and in the test on Acinetobacter baumannii [12] was above 32 µg/mL in each case. Moreover, the MIC (in the test on Acinetobacter baumannii [13]; with Pseudomonas aeruginosa [14]; in [15]; against Escherichia coli [17]; with Bacillus subtilis) was above 32 µg/mL in each case. Besides, the Kd in test [16] worked out at 28.8 µM.
Consider `CCOc1ccc(/C=N/NCc2ccc(Cl)c(Cl)c2)c(O)c1`, for which the MIC with Escherichia coli [1], against Pseudomonas aeruginosa [2], in the test with Staphylococcus aureus [3], against Escherichia coli [4], in the test on Acinetobacter baumannii [5] and against Staphylococcus aureus [6] was above 32 µg/mL throughout. Besides, the MIC with Pseudomonas aeruginosa [7], in the test on Acinetobacter baumannii [8], in the test with Staphylococcus aureus [9], in the test with Acinetobacter baumannii [10], in the test on Pseudomonas aeruginosa [11] and with Acinetobacter baumannii [12] was above 32 µg/mL in each case. In addition, the MIC (in the test with Acinetobacter baumannii [13]; in the test with Pseudomonas aeruginosa [14]; in test [15]; with Escherichia coli [17]; against Bacillus subtilis) was above 32 µg/mL each time. This molecule also gave a Kd in test [16] above 100 µM.
As for `CCCOc1ccc(/C=N/NCc2ccc3ccccc3c2)c(O)c1`, the MIC in the test on Escherichia coli [1], against Pseudomonas aeruginosa [2], in the test with Staphylococcus aureus [3], against Escherichia coli [4], against Acinetobacter baumannii [5] and with Staphylococcus aureus [6] was above 32 µg/mL each time. The MIC against Pseudomonas aeruginosa [7], in the test with Acinetobacter baumannii [8], against Staphylococcus aureus [9], in the test on Acinetobacter baumannii [10], against Pseudomonas aeruginosa [11] and against Acinetobacter baumannii [12] was above 32 µg/mL throughout. For the same molecule, the MIC (against Acinetobacter baumannii [13]; against Pseudomonas aeruginosa [14]; in [15]; in the test with Escherichia coli [17]; with Bacillus subtilis) was above 32 µg/mL in each case. The molecule also returned a Kd in test [16] of 21.7 µM.
For the molecule `COc1ccccc1/C=N/NCc1ccc(C(=O)O)cc1`, the MIC against Escherichia coli [1], in the test with Pseudomonas aeruginosa [2], against Staphylococcus aureus [3], with Escherichia coli [4], against Acinetobacter baumannii [5] and with Staphylococcus aureus [6] was above 32 µg/mL each time. The MIC in the test on Pseudomonas aeruginosa [7], in the test on Acinetobacter baumannii [8], in the test on Staphylococcus aureus [9], in the test on Acinetobacter baumannii [10], against Pseudomonas aeruginosa [11] and against Acinetobacter baumannii [12] was above 32 µg/mL in each case. The MIC (against Acinetobacter baumannii [13]; in the test with Pseudomonas aeruginosa [14]; in test [15]; in the test on Escherichia coli [17]; against Bacillus subtilis) was above 32 µg/mL throughout. Further, the Kd in test [16] was 20.2 µM.
`COc1ccc(O)c(/C=N/NCc2cccc(C(F)(F)F)c2)c1`: the MIC against Escherichia coli [1], against Pseudomonas aeruginosa [2], in the test on Staphylococcus aureus [3], with Escherichia coli [4], against Acinetobacter baumannii [5] and with Staphylococcus aureus [6] was above 32 µg/mL each time. Besides, the MIC in the test with Pseudomonas aeruginosa [7], against Acinetobacter baumannii [8], against Staphylococcus aureus [9], against Acinetobacter baumannii [10], against Pseudomonas aeruginosa [11] and in the test with Acinetobacter baumannii [12] was above 32 µg/mL each time. Moreover, the MIC (against Acinetobacter baumannii [13]; against Pseudomonas aeruginosa [14]; in test [15]; in the test on Escherichia coli [17]; in the test with Bacillus subtilis) was above 32 µg/mL in each case. In test [16], this molecule came in with a Kd above 100 µM.
Consider `Oc1cccc(Br)c1/C=N/NCc1cccc(C(F)(F)F)c1`, for which the MIC against Escherichia coli [1], in the test with Pseudomonas aeruginosa [2], with Staphylococcus aureus [3], in the test with Escherichia coli [4], with Acinetobacter baumannii [5] and in the test on Staphylococcus aureus [6] was above 32 µg/mL each time. Besides, the MIC against Pseudomonas aeruginosa [7], with Acinetobacter baumannii [8], with Staphylococcus aureus [9], with Acinetobacter baumannii [10], against Pseudomonas aeruginosa [11] and against Acinetobacter baumannii [12] was above 32 µg/mL in each case. The MIC (in the test on Acinetobacter baumannii [13]; against Pseudomonas aeruginosa [14]; in test [15]; against Escherichia coli [17]; against Bacillus subtilis) was above 32 µg/mL each time. For the same molecule, in test [16], the Kd was above 100 µM.
For the molecule `COc1ccc(/C=N/NCc2ccc(C)cc2)c(O)c1`, the MIC against Escherichia coli [1], with Pseudomonas aeruginosa [2], with Staphylococcus aureus [3], in the test with Escherichia coli [4], with Acinetobacter baumannii [5] and against Staphylococcus aureus [6] was above 32 µg/mL in each case. The MIC with Pseudomonas aeruginosa [7], with Acinetobacter baumannii [8], against Staphylococcus aureus [9], against Acinetobacter baumannii [10], against Pseudomonas aeruginosa [11] and in the test on Acinetobacter baumannii [12] was above 32 µg/mL throughout. In addition, the MIC (against Acinetobacter baumannii [13]; in the test with Pseudomonas aeruginosa [14]; in test [15]; with Escherichia coli [17]; with Bacillus subtilis) was above 32 µg/mL each time. The Kd in [16] was above 100 µM.
Regarding `COc1ccc(/C=N/NCc2ccc(C(=O)O)cc2)c(OC)c1`, the MIC in the test with Escherichia coli [1], against Pseudomonas aeruginosa [2], in the test with Staphylococcus aureus [3], against Escherichia coli [4], against Acinetobacter baumannii [5] and against Staphylococcus aureus [6] was above 32 µg/mL throughout. In addition, the MIC in the test on Pseudomonas aeruginosa [7], with Acinetobacter baumannii [8], in the test on Staphylococcus aureus [9], in the test on Acinetobacter baumannii [10], with Pseudomonas aeruginosa [11] and with Acinetobacter baumannii [12] was above 32 µg/mL throughout. Also, the MIC (against Acinetobacter baumannii [13]; in the test on Pseudomonas aeruginosa [14]; in [15]; against Escherichia coli [17]; in the test with Bacillus subtilis) was above 32 µg/mL each time. This molecule gave a Kd in test [16] of 72.5 µM.
Turning to `Oc1ccc(/C=N/NCc2ccc(C(F)(F)F)cc2)c(O)c1`, the MIC is above 32 µg/mL against Escherichia coli [1]; above 32 µg/mL against Pseudomonas aeruginosa [2]; 8 µg/mL (≈ 25.8 µM) against Staphylococcus aureus [3]; above 32 µg/mL against Escherichia coli [4]; 16 µg/mL (≈ 51.6 µM) in the test on Acinetobacter baumannii [5]; 4 µg/mL (≈ 12.9 µM) against Staphylococcus aureus [6]. Besides, the MIC against Pseudomonas aeruginosa [7] was above 32 µg/mL; with Acinetobacter baumannii [8] it was 16 µg/mL (≈ 51.6 µM); in the test with Staphylococcus aureus [9], 2 µg/mL (≈ 6.45 µM); with Acinetobacter baumannii [10] it was 8 µg/mL (≈ 25.8 µM); in the test on Pseudomonas aeruginosa [11], above 32 µg/mL; with Acinetobacter baumannii [12] it was 16 µg/mL (≈ 51.6 µM). Besides, the MIC against Acinetobacter baumannii [13] was 16 µg/mL (≈ 51.6 µM); with Pseudomonas aeruginosa [14], above 32 µg/mL; in test [15], 16 µg/mL (≈ 51.6 µM); against Escherichia coli [17], above 32 µg/mL; in the test on Bacillus subtilis, 4 µg/mL (≈ 12.9 µM). In addition, in [16], the Kd is 0.596 µM.

(Values after ChEMBL document CHEMBL3871284, “Structure-activity relationship-based screening of antibiotics against Gram-negative Acinetobacter baumannii” (Bioorg Med Chem, 2017).)
